Like-named read-outs stand apart in the source and are kept apart here.
What was measured:
[1] = system: mature adipocytes (3T3-L1); test: Apoptosis assay (ApoStrand ELISA, single stranded DNA) in mature adipocytes; type: cell-based, mouse; settings: for effect on apoptosis of mature adipocytes (ssDNA): individual compound, XN e.g. 50 μM at 48 hrs; for increased apoptosis, alone: XN or GS alone; for effect on apoptosis: compound alone at 25 and 50 μM; for % Increase in apoptosis mean ± s.e.m.: mature adipocytes, concentration (μM) is the number in the treatment label
Procedure: Apoptosis assays. For the assessment of apoptosis, the ApoStrand ELISA Apoptosis Detection Kit (Biomol, Plymouth Meeting, Pa.) was used. This kit detects single stranded DNA, which occurs in apoptotic cells but not in necrotic cells or in cells with DNA breaks in the absence of apoptosis. Adipocytes were incubated with DMSO or the test compounds for the indicated times and at the indicated concentrations. Thereafter, treatment media was removed and the cells were fixed for 30 min and assayed according to the manufacturer's instructions.
The enhanced reduction in cell viability by XN plus HK was evaluated to determine if the reduction in cell viability was attributable to apoptosis.
The effects of XN and G on mature adipocytes apoptosis were investigated by measuring the changes of the levels of single strained DNA (ssDNA) in the cells.
(§1) The enhanced reduction in cell viability by XN plus GS was evaluated to determine if the reduction in cell viability was attributable to apoptosis.

[2] = system: mature adipocytes (3T3-L1); test: Cell viability assay (MTS) in mature adipocytes; settings: for effect on viability of mature adipocytes: individual compound, 24 and 48 h; for effect on cell viability: compound alone at 25 and 50 μM
Procedure: (§5) 3T3-L1 mouse fibroblast were obtained from American Type Culture Collection (Manassas, Va.) and were cultured in Dulbecco's modified Eagle's medium (DMEM) (GIBCO, Grand Island, N.Y.) containing 10% bovine calf serum (BCS) until confluent. Two days after confluency, the cells were stimulated to differentiate with an induction medium (hereinafter “MDI”), which comprises DMEM containing 10% FBS, 167 nM insulin (Sigma), 0.5 μg of isobutylmethylxanthine (IBMX) (Sigma), and 1 μm of dexamethasone (Sigma) for two (2) days. Cells were then maintained on 10% FBS/DMEM with 167 nM insulin for another 2 days, followed by culturing with FBS/DMEM for an additional four days, at which time more than 90% of cells were mature adipocytes with accumulated fat droplets. All media contained 100 U/ml of penicillin, 100 μg/ml of streptomycin, and 292 μg/ml of glutamine. Cells were maintained at 37° C. in a 5% CO2 humidified environment.
(§6) Cell viability assay. Adipocytes were incubated with dimethyl sulfoxide (DMSO) (0.02%) or test compounds. Prior to measuring viability, treatment media were removed and replaced with 100 μl fresh 10% FBS/DMEM medium and 20 μl MTS solution (Promega, Madison, Wis.). Cells were then returned to the incubator for an additional 2 h before 25 μl of 10% sodium dodecyl sulfate (SDS) was added to stop the reaction. The absorbance was measured at 490 nm in a plate reader (μQuant Bio-Tek Instruments, Inc. Winooski, Vt.) to determine the formazan concentration, which is proportional to the number of live cells.
(§7) Adipocytes were treated with XN (25, 50 μM) and HK (25, 50, 75 μM) as individual compounds or in combination for 12, 24, and 48 h. After treatment, cell viability was determined by the MTS assay, as described in Example 1.
(§8) Adipocytes were treated with XN (25, 50 μM) and G (50, 100 μM) as individual compounds or in combination for 24 and 48 h. After treatment, cell viability was determined by the MTS assay, as described in Example 1.
(§9) Adipocytes were treated with XN (25, 50, 75 μM) and GS (25, 50, 75 μM) as individual compounds or in combination for 24 and 48 h. After treatment, cell viability was determined by the MTS assay, as described in Example 1.

Bcl-2 protein = Bcl-2 protein expression (Western blot); type: cell-based, mouse; settings: compound individually
Procedure: (§2) Western blot analysis. Following the indicated treatment, whole cell extracts were prepared by washing the cells with phosphate buffered saline (PBS) and suspending the cells in a lysis buffer (20 mM Tris, pH 7.5, 150 mM sodium chloride, 1 mM EDTA, 1 mM EGTA, 1% Triton X-100, 2.5 mM sodium pyrophosphate, 1 mM β-glycerophosphate, 1 mM sodium vanadate (Na3VO4), 1 μg/ml aprotinin, 1 μg/ml leupeptin, and 100 μg/ml phenylmethylsulfonyl fluoride). After 30 min of rocking at 4° C., the mixtures were centrifuged (10,000×g) for 10 min, and the supernatants were collected as whole-cell extracts. […] The protein concentration was determined by the method of Bradford with bovine serum albumin as the standard. […] Samples were heated to 70° C. for 10 min, separated by 12% acrylamide gels, and analyzed by immunoblotting. […]
(§3) Quantitative analysis of Western blot data. […] For statistical analysis, all data were expressed as integrated density values (IDV). For PARP, Bcl-2, and cytochrome c, IDVs were calculated as the density values of the specific protein bands/β-actin density values and expressed as percentage of the control.
To further investigate whether XN and GS affects the intrinsic apoptosis induction pathway, the expression of the anti-apoptotic Bcl-2 protein was evaluated by western blotting.

mature adipocytes [3] = test: Lipolysis in mature adipocytes; type: cell-based, mouse; settings: for lipolysis: XN or GS alone, 12 h incubation
Procedure: Effects of XN and HK on lipolysis in mature adipocytes. Mature adipocytes were incubated with either control or test compounds for indicated times.

caspase-3/7 = test: Caspase-3 and 7 activity assay (Caspase-Glo 3/7) in mature adipocytes; type: cell-based, mouse; settings: for caspase-3/7 activity: individual compound, XN 25, 50 μM, HK 25, 50, 75 μM, 12 h
Procedure: Caspase-3 and 7 activity assay. Adipocytes were incubated with DMSO or the test compounds and the indicated times and concentrations. Thereafter, 100 μl of caspase-Glo 3/7 reagent (Promega, Madison, Wis.) was added to each sample and the cells were incubated for 1 h and assayed according to the manufacturer's instructions.
Effects of XN and HK on caspase-3/−7 activation and PARP cleavage. To confirm apoptosis in response to combined treatment with XN and HK, the activity of caspase-3/7 was evaluated.
The caspases 3/7 activity was measured using a commercially available Caspase Glo 3/7 assay kit (Promega, Madison, Wis.), as described in Example 1.

mature adipocytes [4] = test: Lipid content of mature adipocytes after 7-day treatment; type: cell-based, mouse; settings: individual compound, XN 6 μM and 12 μM, GS 12 μM and 25 μM, seven days
mature adipocytes [5] = test: Hoechst staining of mature adipocytes; type: cell-based, mouse; settings: XN or GS alone
Procedure: as §1

[6] = system: Poly (ADP-ribose) polymerase (PARP); test: PARP cleavage in mature adipocytes (Western blot); type: cell-based, mouse; settings: compound alone
Procedure: as §2, §3
(§4) Effects of XN and HK cytochrome c release from mitochondria and PARP cleavage in mature adipocytes. To further investigate whether XN and HK affects the intrinsic apoptosis induction pathway, the induction of cytochrome c release was evaluated by Western blotting.

[7] = system: mature adipocytes (3T3-L1); settings: mouse, 48 h
Procedure: as §5, §6, §7, §8, §9

3T3-L1 pre-adipocytes = test: Adipogenesis: lipid content (AdipoRed) during maturation of pre-adipocytes; type: cell-based, mouse; settings: compound alone, days 0-6 of differentiation
Procedure: Quantification of lipid content and oil red O staining. Lipid content was measured using a commercially available kit (AdipoRed Assay Reagent; Cambrex Bio Science, Walkersville, Inc.). Briefly, test compositions and a 0.01% DMSO control were added with the induction medium for days 0-6 of adipogenesis. Medium was changed every 2 days. On day 6, intracellular lipid content was measured by AdipoRed Assay. Cells were washed with PBS (pH 7.4) and 200 μl of PBS was added to the wells. About 5 μl of AdipoRed reagent was added to each well. After 10 min, the plates were placed in the fluorometer and fluorescence was measured with excitation wavelength of 485 nm and emission wavelength of 572 nm. To visualize lipid content, treated cells were stained with oil red O and hematoxylin as described by Suryawan and Hu. After mounting with glycerol gelatin, three images for each dish were captured using ImagePro software (MediaCybernetics, Silver Spring, Md.).
Effects of XN and HK on adipogenesis of post-confluent pre-adipocytes during maturation. Post-confluent pre-adipocytes were induced to differentiate for 0-6 days in differentiation medium with or without XN or HK for indicated times. […]
To determine the synergistic effects of XN and GS on adipogenesis, the effect of XN and GS on inhibiting lipid accumulation in (FIG. 15A) and viability of (FIG. 15B) maturing 3T3-L1 adipocytes was determined.

cytochrome c = test: Cytochrome c release from mitochondria (Western blot); type: cell-based, mouse; settings: compound alone at 50 μM
Procedure: as §2, §3, §4

SMILES: O=c1c(-c2ccc(O)cc2)coc2cc(O)cc(O)c12 [G, 4,5,7-trihydroxyisoflavone]
- effect on apoptosis of mature adipocytes (ssDNA) [1]: did not affect apoptosis
- effect on viability of mature adipocytes ([2]; XN 25, 50 μM, G 50, 100 μM): did not affect the viability

SMILES: C/C=C1\C(=O)C[C@H]2[C@@H]3CCC4=CC(=O)CC[C@]4(C)[C@H]3CC[C@]12C [GS, Guggulsterone]
- Bcl-2 protein level (Bcl-2 protein): decreased Bcl-2
- increased apoptosis, alone [1]: about 20%
- effect on viability of mature adipocytes ([2]; XN or GS 25, 50, 75 μM): decreased the viability of mature adipocytes in a dose-dependent and time-dependent manner
- lipolysis (mature adipocytes [3]): increased lipolysis slightly
- caspase 3/7 activity (caspase-3/7; GS alone at 75 μM): increased caspase activity
- lipid accumulation in mature adipocytes (mature adipocytes [4]): decreased lipid accumulation
- Hoechst staining, individual treatments (mature adipocytes [5]): small increase in staining

SMILES: C=CCc1ccc(O)c(-c2ccc(O)c(CC=C)c2)c1 [HK, Honokiol]
- effect on PARP cleavage [6]: neither compound alone may affect
- increased apoptosis ([1]; alone at 75 μM, 24 h, P<0.05): 70.4±15.9%
- effect on apoptosis ([1]; 24 h): no effect
- % Increase in apoptosis mean ± s.e.m. ([1]; 24 h, listed as HK50): 10.8 ± 5.9%
- % Increase in apoptosis mean ± s.e.m. ([1]; 24 h, listed as HK75): 70.4 ± 15.9%
- % Decrease in viability mean ± s.e.m. [7]: −1.8 ± 1.5%
- cytotoxicity at 75 µM ([2]; Mus musculus, 3T3-L1, 48 h, read-out: decreased cell viability): 9.1 ± 2.5%
- effect on cell viability ([2]; 48 h): no effect
- lipid accumulation during maturation (3T3-L1 pre-adipocytes): increased lipid accumulation
- caspase-3/7 activity (caspase-3/7): increased caspase-3/7 activity in a dose-dependent manner
- effect on cytochrome c release (cytochrome c): neither 50 μM of XN nor 50 μM of HK had an effect

SMILES: COc1cc(O)c(CC=C(C)C)c(O)c1C(=O)/C=C/c1ccc(O)cc1 [XN, Xanthohumol]
- effect on PARP cleavage [6]: neither compound alone may affect
- Bcl-2 protein level (Bcl-2 protein): decreased Bcl-2
- increased apoptosis, alone [1]: about 20%
- effect on apoptosis ([1]; 24 h): no effect
- effect on apoptosis of mature adipocytes (ssDNA) [1]: increased apoptosis
- % Increase in apoptosis mean ± s.e.m. ([1]; 24 h): 51.0 ± 16.5%
- effect on cell viability ([2]; 48 h): no effect
- effect on viability of mature adipocytes ([2]; XN 25, 50 μM, G 50, 100 μM): decreased the viability of mature adipocytes in a dose-dependent and time-dependent manner
- effect on viability of mature adipocytes ([2]; XN or GS 25, 50, 75 μM): decreased the viability of mature adipocytes in a dose-dependent and time-dependent manner
- % Decrease in viability mean ± s.e.m. ([2]; mature adipocytes, 48 h, concentration (μM) is the number in the treatment label): −2.8 ± 1.5%
- lipid accumulation during maturation (3T3-L1 pre-adipocytes): decreased lipid accumulation
- increase in lipolysis (mature adipocytes [3]; XN 50 μM alone): 20%
- lipolysis (mature adipocytes [3]): increased lipolysis slightly
- caspase-3/7 activity (caspase-3/7): increased caspase-3/7 activity in a dose-dependent manner
- lipid accumulation in mature adipocytes (mature adipocytes [4]): decreased lipid accumulation
- Hoechst staining, individual treatments (mature adipocytes [5]): small increase in staining
- effect on cytochrome c release (cytochrome c): neither 50 μM of XN nor 50 μM of HK had an effect
